Assay results as given in US20110046058A1, “COMPOSITIONS FOR ENTERAL ABSORPTION AND SUSTAINED ACTION OF LEPTIN-RELATED PEPTIDES USEFUL IN THE TREATMENT OF OBESITY AND LEPTIN-MODULATED DISEASE” (AEGIS THERAPEUTICS LLC, priority 2009, published 2011).
Read-outs that look alike come from different tables or passages of the source. Where a SMILES comes first, the peptide text is derived from it.

Experiments:
[1] = mouse, in vivo
Method: (§1) Six week-old male Swiss Webster mice weighing approximately 30 gm were maintained at a constant temperature (24 C) with lights on from 07:00 to 19:00 h, and allowed food and water ad libitum until used for uptake studies. […] For sc, im, and ip delivery, the peptide was dissolved in sterile phosphate buffered saline (PBS, pH 7.2) at a concentration of 1 mg/200 μL as described previously containing 0.18% tetradecyl-beta-D-maltoside. For oral gavage [D-Leu-4]OB3 was dissolved in 0.3% dodecyl-beta-D-maltoside reconstituted in PBS (pH 7.2) at a concentration of 1 mg/200 μL. At time zero (0), a single 200 μL sc, im, ip or oral dose of mouse [D-Leu-4]OB3 was given to each of six mice per time point. Following peptide administration, the mice were transferred to separate cages for the designated time period.
(§2) Five, 10, 20, 40, 60, or 120 minutes after peptide delivery, the mice were anesthetized with isoflurane (5%) and exsanguinated by cardiac puncture. The blood was collected in sterile nonheparinized plastic centrifuge tubes and allowed to stand at room temperature for 1 h. The clotted blood was rimmed from the walls of the tubes with sterile wooden applicator sticks. Individual serum samples were prepared by centrifugation for 30 min at 2600×g in an Eppendorf™ 5702R, A-4-38 rotor (Eppendorf North America, Westbury, N.Y., USA), and stored frozen until assayed for mouse [D-Leu-4]OB3 content by competitive ELISA.
(§3) The [D-Leu-4]OB3 competitive ELISA assay was carried out as follows. 96-well polystyrene plates (Pierce Biotechnology, Inc., Rockford, Ill., USA) were coated with 100 μL of a 5 ug/ml solution of BSA-conjugated mouse [D-Leu-4]OB3 (QED Bioscience, San Diego, Calif.) in carbonate-bicarbonate buffer (pH 9.4). The coated plates were incubated overnight at 4 C. Unoccupied sites were blocked with 200 μL StartingBlock™ in PBS (Pierce Biotechnology Inc., Rockford, Ill., USA) for 2 h at room temperature. Mouse [D-Leu-4]OB3 standards ranging from 5 to 10,000 ng/ml are prepared in PBS (pH 7.2). In a separate incubation, 100 μL of mouse [D-Leu-4]OB3 primary antibody raised in New Zealand White rabbits (QED Bioscience, San Diego, Calif.) and diluted to 1:5000 in StartingBlock™, or 100 μL of the primary antibody+50 μL of each standard or serum sample are added to 500 μL microcentrifuge tubes and incubated for 1 h at 37 C. At the end of the incubation period, 100 μL of each antibody-bound standard or sample were added to the wells and incubated for 1 h at room temperature. HRP-conjugated goat-anti-rabbit IgG (Pierce Biotechnology Inc, Rockford, Ill., USA) was used as the secondary antibody. 100 μL was added to each well and incubated for 1 h at room temperature. At the end of the incubation period, 100 μL of ABTS substrate (Pierce Biotechnology Inc, Rockford, Ill., USA) was added to each well and incubated for 30 minutes on a rotary rocker. Color development was stopped with 1% SDS. Absorbance was read at 405 nm with a Molecular Devices microplate reader (MDS Sciex, Concord, Ontario Canada). Each sample was assayed in triplicate. […] The relative bioavailability was determined by plotting the serum concentrations of mouse [D-Leu-4]OB3 vs. time following ip, sc, or im delivery using the graphics program SigmaPlot™ 8.0 (SPSS Science, Chicago, Ill., USA). The area under each curve (AUC) was calculated with a function of this program.

[2] = mouse, in vivo; remark: listed apart in the source
Method: (§4) Six week-old male Swiss Webster mice weighing approximately 30 g were obtained from Taconic Farms (Germantown, N.Y., USA). The animals were housed three per cage in polycarbonate cages fitted with stainless steel wire lids and air filters, and supported on ventilated racks (Thoren Caging Systems, Hazelton, Pa., USA) in the Albany Medical College Animal Resources Facility. The mice were maintained at a constant temperature (24° C.) with lights on from 07:00 to 19:00 h, and allowed food and water ad libitum until used for uptake studies.
(§5) Following peptide administration the mice were transferred to separate cages for the designated time period.
(§6) Five, 10, 20, 40, 60, or 120 min after peptide delivery, the mice were anesthetized with isoflurane (5%) and exsanguinated by cardiac puncture. The blood was collected in sterile nonheparinized plastic centrifuge tubes and allowed to stand at room temperature for 1 h. The clotted blood was rimmed from the walls of the tubes with sterile wooden applicator sticks.
(§7) The coated plates were incubated overnight at 4° C. Unoccupied sites were blocked with 200 μL StartingBlock™ in PBS (Pierce Biotechnology Inc., Rockford, Ill., USA) for 2 h at room temperature. […] At the end of the incubation period, 100 μL of each antibody-bound standard or sample was added to the wells and incubated for 1 h at room temperature. HRP-conjugated goat-anti-rabbit IgG (Pierce Biotechnology Inc. Rockford, Ill., USA) was used as the secondary antibody. 100 μL was added to each well and incubated for 1 h at room temperature.

[3] = mouse, in vivo, 1 mg
Method: as §1, §2, §3

[4] = mouse, in vivo; remark: listed apart in the source
Method: as §4, §5, §6, §7

[5] = in vivo
From the text: (§8) Typically, an acceptable daily intake for humans is about 1% of the NOAEL, which translates to about 14-21 grams, or 14 million micrograms to 21 million micrograms, per day, indefinitely.

[6] = NOAEL of alkylsaccharide (FAO/WHO report); conditions: per day, indefinitely
From the text: as §8

[7] = FAO/WHO report; cited from earlier work

Question: Which “Relative Oral Bioavailability Compared to Three Injection Modes (% of AUC achieved by each respective injection)” value [1] does the source give for `CC(C)C[C@@H](NC(=O)[C@H](CO)NC(=O)[C@H](CS)NC(=O)[C@@H](N)CO)C(=O)N1CCC[C@H]1C(=O)N[C@@H](CCC(N)=O)C(=O)N[C@H](C(N)=O)[C@@H](C)O` [mouse [D-Leu-4]OB3] (HELM PEPTIDE1{S.C.S.[dL].P.Q.T.[am]}$$$$V2.0; N-terminus assumed) here?
Answer: Its value is 52.2% of IP AUC.

Question: What about the “Relative Oral Bioavailability Compared to Three Injection Modes (% of AUC achieved by each respective injection)” value ([1]; po) of the same compound?
Answer: The value was 37.8% of IM AUC.

Question: And the CL1 [2]?
Answer: Its CL1 is 1.08 mL/min.

Question: What about the CL2 [2] of the same compound?
Answer: The CL2 was 0.29 mL/min.

Question: What about the Relative bioavailability [2] of the same compound?
Answer: The Relative bioavailability was 4.0.

Question: What about the kelim1 [2] of the same compound?
Answer: Its kelim1 is 0.0986 min⁻¹.

Question: What about the kelim2 [2] of the same compound?
Answer: Its kelim2 is 0.0203 min⁻¹.

Question: And the Relative bioavailability ([2]; im)?
Answer: The Relative bioavailability was 1.4.

Question: What about the AUC ([2]; im, 1 mg) of the same compound?
Answer: The AUC was 1,481,060 ng/ml/min.

Question: What about the “CL (plasma clearance)” value ([2]; im, 1 mg) of the same compound?
Answer: Its value is 0.68 mL/min.

Question: What about the “Vd (apparent volume of distribution)” value ([2]; im, 1 mg) of the same compound?
Answer: The value was 29.4 mL.

Question: And the “CL1 + CL2 (overall clearance)” value ([2]; inhaled or intranasal)?
Answer: The value was 1.37 mL/min.

Question: And the Vd1 ([2]; inhaled or intranasal)?
Answer: Its Vd1 is 1.1 mL.

Question: What about the “Vd1 + Vd2 (overall volume of distribution)” value ([2]; inhaled or intranasal) of the same compound?
Answer: Its value is 15.4 mL.

Question: And the Vd2 ([2]; inhaled or intranasal)?
Answer: The Vd2 was 14.3 mL.

Question: And the Cmax2 ([2]; inhaled or intranasal, 1 mg)?
Answer: Its Cmax2 is 69,069 ng/ml.

Question: What about the Tmax2 ([2]; inhaled or intranasal, 1 mg) of the same compound?
Answer: The Tmax2 was 60 min.

Question: What about the tmax1 ([2]; inhaled or intranasal, 1 mg) of the same compound?
Answer: Its tmax1 is 10 min.

Question: What about the Relative bioavailability ([2]; ip) of the same compound?
Answer: Its Relative bioavailability is 1.0.

Question: And the AUC ([2]; ip, 1 mg)?
Answer: Its AUC is 1,072,270 ng/ml/min.

Question: What about the “CL (plasma clearance)” value ([2]; ip, 1 mg) of the same compound?
Answer: Its value is 0.93 mL/min.

Question: And the “Vd (apparent volume of distribution)” value ([2]; ip, 1 mg)?
Answer: Its value is 65.5 mL.

Question: What about the Relative bioavailability ([2]; sc) of the same compound?
Answer: The Relative bioavailability was 1.1.

Question: What about the AUC ([2]; sc, 1 mg) of the same compound?
Answer: Its AUC is 1,182,498 ng/ml/min.

Question: And the “CL (plasma clearance)” value ([2]; sc, 1 mg)?
Answer: The value was 0.85 mL/min.

Question: What about the “Vd (apparent volume of distribution)” value ([2]; sc, 1 mg) of the same compound?
Answer: Its value is 42.9 mL.

Question: And the “t1/2 (serum half-life)” value ([2]; sc, 1 mg)?
Answer: Its value is 34.0 min.

Question: And the AUC ([3]; im)?
Answer: Its AUC is 24700 ng·h/mL.

Question: What about the AUC ([3]; ip) of the same compound?
Answer: Its AUC is 17900 ng·h/mL.

Question: And the AUC ([3]; po)?
Answer: The AUC was 9320 ng·h/mL.

Question: What about the AUC ([3]; sc) of the same compound?
Answer: Its AUC is 19700 ng·h/mL.

Question: And the Cmax ([4]; im, 1 mg)?
Answer: Its Cmax is 46600 ng/mL.

Question: And the Tmax ([4]; im, 1 mg)?
Answer: The Tmax was 5 min.

Question: What about the AUC ([4]; im, 1 mg, AUC) of the same compound?
Answer: The AUC was 24700 ng·h/mL.

Question: What about the half-life ([4]; im, 1 mg, t1/2 (serum half-life)) of the same compound?
Answer: The half-life was 48.8 min.

Question: And the AUC ([4]; inhaled or intranasal, 1 mg, AUC1)?
Answer: The AUC was 15400 ng·h/mL.

Question: And the AUC ([4]; inhaled or intranasal, 1 mg, AUC2)?
Answer: Its AUC is 56900 ng·h/mL.

Question: And the half-life ([4]; inhaled or intranasal, t1/2 1)?
Answer: Its half-life is 7 min.

Question: What about the half-life ([4]; inhaled or intranasal, t1/2 1 + t1/2 2 (overall half-life)) of the same compound?
Answer: Its half-life is 41.1 min.

Question: And the half-life ([4]; inhaled or intranasal, t1/2 2)?
Answer: Its half-life is 34.1 min.

Question: And the Cmax ([4]; ip, 1 mg)?
Answer: The Cmax was 22500 ng/mL.

Question: What about the Tmax ([4]; ip, 1 mg) of the same compound?
Answer: The Tmax was 5 min.

Question: And the AUC ([4]; ip, 1 mg, AUC)?
Answer: The AUC was 17900 ng·h/mL.

Question: And the half-life ([4]; ip, 1 mg, t1/2 (serum half-life))?
Answer: The half-life was 30 min.

Question: And the Cmax ([4]; sc, 1 mg)?
Answer: The Cmax was 35100 ng/mL.

Question: And the Tmax ([4]; sc, 1 mg)?
Answer: Its Tmax is 5 min.

Question: What about the AUC ([4]; sc, 1 mg, AUC) of the same compound?
Answer: The AUC was 19700 ng·h/mL.

Question: And the half-life ([4]; sc, 1 mg, t1/2 (serum half-life))?
Answer: The half-life was 35 min.

Question: Which results are given for sucrose dodecanoate?
Answer: amount a 70 kilogram person can consume per day without any observable adverse effect [5]: 1400-2100 grams; acceptable daily intake for humans (about 1% of the NOAEL) [6]: 14-21 grams; NOAEL [7]: 20-30 grams/kilogram/day
